Tests used:
[1] = target: T1, bovine carbonic anhydrase II (CAII) (Bos taurus, UniProt P00921); test: Carbonic anhydrase II inhibition assay (esterase activity on p-nitrophenyl acetate); type: biochemical; details: for remaining activity at 0.0001024 µM: 0.1024 nM compound; for remaining activity at 0.0001024 µM / remaining activity at 0.000512 µM / remaining activity at 0.00256 µM / remaining activity at 0.064 µM / remaining activity at 0.32 µM / remaining activity at 1.6 µM / remaining activity at 8 µM / remaining activity at 40 µM / remaining activity at 200 µM: source data of Fig. 2c, read-out: Normalized CA II Activity (Mean); for remaining activity at 0.000512 µM: 0.512 nM compound; for remaining activity at 0.00256 µM: 2.56 nM compound; for remaining activity at 0.064 µM: 64 nM compound; for remaining activity at 0.32 µM: 320 nM compound; for remaining activity at 1.6 µM: 1600 nM compound; for remaining activity at 8 µM: 8000 nM compound; for remaining activity at 40 µM: 40000 nM compound; for remaining activity at 200 µM: 200000 nM compound; for IC50: mean ± SE, three independent measurements, n.d: not detected
T1 construct: purchased Sigma-Aldrich C7749
T1 sequence (P00921 whole entry): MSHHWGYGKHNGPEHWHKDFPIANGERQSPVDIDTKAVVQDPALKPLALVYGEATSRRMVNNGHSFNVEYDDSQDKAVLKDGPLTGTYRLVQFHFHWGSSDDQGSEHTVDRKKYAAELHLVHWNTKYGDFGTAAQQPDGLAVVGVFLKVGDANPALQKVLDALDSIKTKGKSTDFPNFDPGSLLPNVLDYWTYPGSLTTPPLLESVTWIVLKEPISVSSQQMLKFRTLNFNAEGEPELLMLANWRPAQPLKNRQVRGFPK
Protocol: CAII inhibition assay was performed to measure the inhibitory effect of re-synthesized CBS-conjugates. The esterase activity of CAII with a chromogenic substrate p-nitrophenyl acetate (pNPA) was measured. The rates of hydrolysis were determined by an increase of absorption at 410 nm after incubating different compounds with CAII. Re-synthesized compounds were diluted in a serial spanning mM to μM concentrations. […] 5 µl of pNPA (50 mM in 20% DMSO) was added to the plate right before the measurement. The absorption was measured at 37 °C each 10 sec for 15 min using a Beckman Coulter’s Paradigm Detection Platform (Brea, USA). The initial Vmax was obtained from the increase of absorption and the Vmax was plotted against the inhibitor concentrations and logistic fitting was performed to obtain IC50 values using Origin 2019b (OriginLab) software.

bovine trypsin = target: T2, bovine trypsin (Bos taurus, UniProt P00760); test: Trypsin inhibition assay (proteolytic activity on BApNA); type: biochemical
T2 construct: purchased Sigma-Aldrich T8003
T2 sequence (P00760 24-246): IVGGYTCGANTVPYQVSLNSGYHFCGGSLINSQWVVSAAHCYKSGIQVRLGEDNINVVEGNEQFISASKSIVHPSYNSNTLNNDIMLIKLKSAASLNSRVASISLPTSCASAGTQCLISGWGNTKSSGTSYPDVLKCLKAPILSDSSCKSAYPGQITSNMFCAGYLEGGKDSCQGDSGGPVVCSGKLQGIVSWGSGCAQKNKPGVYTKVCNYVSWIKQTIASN
Protocol: The inhibition by the benzamidine derivatives against trypsin was measured using an assay probing the enzyme proteolytic activity on the substrate Nα-Benzoyl-DL-arginine-4-nitroanilide hydrochloride (BApNA). […] 5 µl of BApNA solution (10 mM, dissolved in DMSO) were added immediately prior to the measurement. The final total volume was 100 µl per well. The measurements were performed in a Low Binding 384-well plate. The absorption was measured at 410 nm in intervals of 10 sec for 15 min at 37 °C using a Beckman Coulter’s Paradigm Detection Platform (Brea, USA). The measurements were performed in triplicate. The activity of trypsin was calculated by the hydrolysis rate of BApNA after subtraction of the background-hydrolysis rate. The curves were plotted as a function of the concentration of the inhibitor against the relative enzyme activity. Vmax was derived from the detected absorption signal for each concentration and logistic fitting was performed to obtain IC50 values using Origin 2019b (OriginLab).

[2] = Concentration 0.1024 nM, fraction of uninhibited activity, read-out: mean (Figure 3c, dose-response, relative trypsin activity)
[3] = Concentration 0.512 nM, fraction of uninhibited activity, read-out: mean (Figure 3c, dose-response, relative trypsin activity)
[4] = Concentration 2.56 nM, fraction of uninhibited activity, read-out: mean (Figure 3c, dose-response, relative trypsin activity)
[5] = Concentration 64 nM, fraction of uninhibited activity, read-out: mean (Figure 3c, dose-response, relative trypsin activity)
[6] = Concentration 320 nM, fraction of uninhibited activity, read-out: mean (Figure 3c, dose-response, relative trypsin activity)
[7] = Concentration 1600 nM, fraction of uninhibited activity, read-out: mean (Figure 3c, dose-response, relative trypsin activity)
[8] = Concentration 8000 nM, fraction of uninhibited activity, read-out: mean (Figure 3c, dose-response, relative trypsin activity)
[9] = Concentration 40000 nM, fraction of uninhibited activity, read-out: mean (Figure 3c, dose-response, relative trypsin activity)
[10] = Concentration 200000 nM, fraction of uninhibited activity, read-out: mean (Figure 3c, dose-response, relative trypsin activity)

SMILES	remaining activity at 0.0001024 µM [1]	remaining activity at 0.000512 µM [1]	remaining activity at 0.00256 µM [1]	remaining activity at 0.064 µM [1]	remaining activity at 0.32 µM [1]	remaining activity at 1.6 µM [1]	remaining activity at 8 µM [1]	remaining activity at 40 µM [1]	remaining activity at 200 µM [1]	IC50 [1]	remaining activity at 0.0001024 µM (bovine trypsin; [2])	remaining activity at 0.000512 µM (bovine trypsin; [3])	remaining activity at 0.00256 µM (bovine trypsin; [4])	remaining activity at 0.064 µM (bovine trypsin; [5])	remaining activity at 0.32 µM (bovine trypsin; [6])	remaining activity at 1.6 µM (bovine trypsin; [7])	remaining activity at 8 µM (bovine trypsin; [8])	remaining activity at 40 µM (bovine trypsin; [9])	remaining activity at 200 µM (bovine trypsin; [10])	other results
NS(=O)(=O)c1ccc(NCc2ccc(C(=O)NCCNC(=O)/C=C/c3ccc(-c4ccccc4C(F)(F)F)o3)cc2)cc1 [Compound C-1]	93.8%	93.6%	90.4%	87.7%	71.8%	43%	19.9%	8.01%	2.91%	1290 ± 90 nM										
N=C(N)c1ccc(CNC(=O)C2CCC(C(=O)NCCNC(=S)Nc3cccc(I)c3)CC2)cc1 (centres unmarked) [Compound T-3]											93.7%	99.6%	98.7%	108%	90.1%	56.5%	18.3%	3.2%	0.69%	remaining activity at 650 µM (bovine trypsin; Concentration 650000 nM, fraction of uninhibited activity, read-out: mean (Figure 3c, dose-response, relative trypsin activity)): 0%; improvement (of inhibitory effect) (bovine trypsin; compared with 4-aminomethyl benzamidine): 30 fold; IC50 (bovine trypsin; mean ± SE, three independent measurements, n.d: not detected): 2100 ± 400 nM
S=C=Nc1ccccc1I [Compound B, 2-iodophenyl isothiocyanate, reference compound]											103%	102%	94.8%	107%	107%	100%	108%	105%	114%	remaining activity at 1000 µM (bovine trypsin; Concentration 1000000 nM, fraction of uninhibited activity, read-out: mean (Figure 3c, dose-response, relative trypsin activity)): 90.1%; inhibitory effect (bovine trypsin; in words): did not display any detectable inhibitory effect
N=C(N)c1ccc(CNC2CC(=O)N(CC3CCC(C(=O)NCCNC(=S)Nc4cccc(I)c4)CC3)C2=O)cc1 (centres unmarked) [Compound T-5]																				mean (Figure 3c, dose-response, relative trypsin activity) (bovine trypsin; Concentration 0.1024 nM, fraction of uninhibited activity): 1.021; mean (Figure 3c, dose-response, relative trypsin activity) (bovine trypsin; Concentration 0.512 nM, fraction of uninhibited activity): 0.9691; mean (Figure 3c, dose-response, relative trypsin activity) (bovine trypsin; Concentration 2.56 nM, fraction of uninhibited activity): 0.9977; mean (Figure 3c, dose-response, relative trypsin activity) (bovine trypsin; Concentration 64 nM, fraction of uninhibited activity): 0.9529; mean (Figure 3c, dose-response, relative trypsin activity) (bovine trypsin; Concentration 320 nM, fraction of uninhibited activity): 0.962; mean (Figure 3c, dose-response, relative trypsin activity) (bovine trypsin; Concentration 1600 nM, fraction of uninhibited activity): 0.9553; mean (Figure 3c, dose-response, relative trypsin activity) (bovine trypsin; Concentration 8000 nM, fraction of uninhibited activity): 0.8147; mean (Figure 3c, dose-response, relative trypsin activity) (bovine trypsin; Concentration 40000 nM, fraction of uninhibited activity): 0.4599; mean (Figure 3c, dose-response, relative trypsin activity) (bovine trypsin; Concentration 200000 nM, fraction of uninhibited activity): 0.1722; mean (Figure 3c, dose-response, relative trypsin activity) (bovine trypsin; Concentration 650000 nM, fraction of uninhibited activity): 0.07286; mean (Figure 3c, dose-response, relative trypsin activity) (bovine trypsin; Concentration […], fraction of uninhibited activity): 0.9721
NS(=O)(=O)c1ccc(NC(=O)/C=C/c2ccc(-c3ccccc3C(F)(F)F)o2)cc1 [Compound C-0]	93.3%	94%	93.6%	84.9%	65.6%	45.7%	38.2%		20.9%	830 nM										
NS(=O)(=O)c1ccc(NC(=O)c2ccc(-n3cc(CCC(=O)NCCNC(=O)/C=C/c4ccc(-c5ccccc5C(F)(F)F)o4)nn3)cc2)cc1 [Compound C-4]	96.8%	89%	89.3%	89.8%	90.3%	65%	42.3%	33.8%	9.19%											

— article PMC10023787, “Trio-pharmacophore DNA-encoded chemical library for simultaneous selection of fragments and linkers” (Nature Communications, 2023)
